What was measured:
[1] = The drug is tested on Bacteroides fragilis strain: HMW610 for biotransformation. The drug concentrations were measured before and after a 12-h incubation by liquid-chromatography-coupled mass spectrometry (LC–MS); details: 2 µM
[2] = The drug is tested on Clostridium sporogenes strain: ATCC15579 for biotransformation. The drug concentrations were measured before and after a 12-h incubation by liquid-chromatography-coupled mass spectrometry (LC–MS); details: 2 µM
[3] = The drug is tested on Odoribacter splanchnicus strain: fecal isolate for biotransformation. The drug concentrations were measured before and after a 12-h incubation by liquid-chromatography-coupled mass spectrometry (LC–MS); details: 2 µM
[4] = anaerostipes sp., 12 h, 2 µM
Description: The drug is tested on Anaerostipes sp. strain: fecal isolate for biotransformation. The drug concentrations were measured before and after a 12-h incubation by liquid-chromatography-coupled mass spectrometry (LC–MS)

[5] = The drug is tested on Edwardsiella tarda strain: ATCC23685 for biotransformation. The drug concentrations were measured before and after a 12-h incubation by liquid-chromatography-coupled mass spectrometry (LC–MS); details: 2 µM
[6] = The drug is tested on Coprococcus comes strain: ATCC27758 for biotransformation. The drug concentrations were measured before and after a 12-h incubation by liquid-chromatography-coupled mass spectrometry (LC–MS); format: ADME; parameters: dose 2 uM, timepoint 0 vs 12 hours; details: 2 µM
[7] = The drug is tested on Parabacteroides merdae strain: ATCC43184 for biotransformation. The drug concentrations were measured before and after a 12-h incubation by liquid-chromatography-coupled mass spectrometry (LC–MS); details: 2 µM
[8] = bacteroides thetaiotaomicron, 12 h, 2 µM
Description: The drug is tested on Bacteroides thetaiotaomicron strain: 3731 for biotransformation. The drug concentrations were measured before and after a 12-h incubation by liquid-chromatography-coupled mass spectrometry (LC–MS)

[9] = bacteroides fragilis, 12 h, 2 µM
Description: The drug is tested on Bacteroides fragilis strain: NCTC 9343 for biotransformation. The drug concentrations were measured before and after a 12-h incubation by liquid-chromatography-coupled mass spectrometry (LC–MS)

[10] = The drug is tested on Subdoligranulum variabile strain: DSM15176 for biotransformation. The drug concentrations were measured before and after a 12-h incubation by liquid-chromatography-coupled mass spectrometry (LC–MS); details: 2 µM
[11] = The drug is tested on Clostridium symbiosum strain: ATCC14940 for biotransformation. The drug concentrations were measured before and after a 12-h incubation by liquid-chromatography-coupled mass spectrometry (LC–MS); details: 2 µM
[12] = The drug is tested on Bacteroides ovatus strain: ATCC8483 for biotransformation. The drug concentrations were measured before and after a 12-h incubation by liquid-chromatography-coupled mass spectrometry (LC–MS); details: 2 µM
[13] = The drug is tested on Blautia luti strain: DSM14534 for biotransformation. The drug concentrations were measured before and after a 12-h incubation by liquid-chromatography-coupled mass spectrometry (LC–MS); format: ADME; parameters: dose 2 uM, timepoint 0 vs 12 hours; details: 2 µM
[14] = The drug is tested on Eggerthella lenta strain: ATCC25559 for biotransformation. The drug concentrations were measured before and after a 12-h incubation by liquid-chromatography-coupled mass spectrometry (LC–MS); details: 2 µM
[15] = The drug is tested on Bacteroides pectinophilus strain: ATCC43243 for biotransformation. The drug concentrations were measured before and after a 12-h incubation by liquid-chromatography-coupled mass spectrometry (LC–MS); details: 2 µM
[16] = The drug is tested on Clostridium scindens strain: ATCC35704 for biotransformation. The drug concentrations were measured before and after a 12-h incubation by liquid-chromatography-coupled mass spectrometry (LC–MS); details: 2 µM
[17] = The drug is tested on Anaerococcus hydrogenalis strain: DSM7454 for biotransformation. The drug concentrations were measured before and after a 12-h incubation by liquid-chromatography-coupled mass spectrometry (LC–MS); details: 2 µM
[18] = The drug is tested on Bacteroides uniformis strain: ATCC8492 for biotransformation. The drug concentrations were measured before and after a 12-h incubation by liquid-chromatography-coupled mass spectrometry (LC–MS); details: 2 µM
[19] = The drug is tested on Alistipes indistinctus strain: DSM22520 for biotransformation. The drug concentrations were measured before and after a 12-h incubation by liquid-chromatography-coupled mass spectrometry (LC–MS); details: 2 µM
[20] = The drug is tested on Bacteroides vulgatus strain: ATCC8482 for biotransformation. The drug concentrations were measured before and after a 12-h incubation by liquid-chromatography-coupled mass spectrometry (LC–MS); details: phocaeicola vulgatus, 2 µM

Compound	Bacterial Biotransformation [1]	Bacterial Biotransformation [2]	Bacterial Biotransformation [3]	Bacterial Biotransformation [4]	Bacterial Biotransformation [5]	Bacterial Biotransformation [6]	Bacterial Biotransformation [7]	Bacterial Biotransformation [8]	Bacterial Biotransformation [9]	Bacterial Biotransformation [10]	Bacterial Biotransformation [11]	Bacterial Biotransformation [12]	Bacterial Biotransformation [13]	Bacterial Biotransformation [14]	Bacterial Biotransformation [15]	Bacterial Biotransformation [16]	Bacterial Biotransformation [17]	Bacterial Biotransformation [18]	Bacterial Biotransformation [19]	Bacterial Biotransformation [20]
COc1ccccc1OCCNCC(O)COc1cccc2[nH]c3ccccc3c12 (stereo not given) [CARVEDILOL]	Compound NOT metabolized	Compound metabolized	Compound NOT metabolized	Compound metabolized	Compound NOT metabolized	Compound NOT metabolized	Compound metabolized	Compound metabolized	Compound metabolized	Compound NOT metabolized	Compound NOT metabolized	Compound metabolized	Compound metabolized	Compound NOT metabolized	Compound NOT metabolized	Compound NOT metabolized	Compound metabolized	Compound metabolized	Compound metabolized	Compound metabolized
CC(C)(C)NCC(O)c1cc(Cl)c(N)c(Cl)c1 (stereo not given) [CLENBUTEROL]	Compound NOT metabolized	Compound NOT metabolized	Compound NOT metabolized	Compound NOT metabolized	Compound NOT metabolized	Compound NOT metabolized	Compound NOT metabolized	Compound NOT metabolized	Compound NOT metabolized	Compound NOT metabolized	Compound NOT metabolized	Compound NOT metabolized	Compound NOT metabolized	Compound NOT metabolized	Compound NOT metabolized	Compound NOT metabolized	Compound NOT metabolized	Compound NOT metabolized	Compound NOT metabolized	Compound NOT metabolized
C#C[C@]1(O)CC[C@H]2[C@@H]3CCC4=Cc5oncc5C[C@]4(C)[C@H]3CC[C@@]21C [DANAZOL]	Compound metabolized	Compound metabolized	Compound metabolized	Compound metabolized	Compound metabolized	Compound metabolized	Compound metabolized	Compound metabolized	Compound metabolized	Compound metabolized	Compound metabolized	Compound metabolized	Compound metabolized	Compound metabolized	Compound metabolized	Compound metabolized	Compound metabolized	Compound metabolized	Compound metabolized	Compound metabolized
CC(=O)OCC(=O)[C@@]12N=C(C)O[C@@H]1C[C@H]1[C@@H]3CCC4=CC(=O)C=C[C@]4(C)[C@H]3[C@@H](O)C[C@@]12C [DEFLAZACORT]	Compound metabolized	Compound metabolized	Compound metabolized	Compound metabolized	Compound metabolized	Compound metabolized	Compound metabolized	Compound metabolized	Compound metabolized	Compound metabolized	Compound metabolized	Compound metabolized	Compound metabolized	Compound metabolized	Compound metabolized	Compound metabolized	Compound metabolized	Compound metabolized	Compound metabolized	Compound metabolized
CCN(CC)C(=O)/C(C#N)=C/c1cc(O)c(O)c([N+](=O)[O-])c1 [ENTACAPONE]	Compound metabolized	Compound metabolized	Compound metabolized	Compound metabolized	Compound metabolized	Compound metabolized	Compound metabolized	Compound metabolized	Compound metabolized	Compound metabolized	Compound metabolized	Compound metabolized	Compound metabolized	Compound metabolized	Compound metabolized	Compound metabolized	Compound metabolized	Compound metabolized	Compound metabolized	Compound metabolized

Now from value to molecule:

Bacterial Biotransformation [1]	Bacterial Biotransformation [2]	Bacterial Biotransformation [3]	Bacterial Biotransformation [4]	Bacterial Biotransformation [5]	Bacterial Biotransformation [6]	Bacterial Biotransformation [7]	Bacterial Biotransformation [8]	Bacterial Biotransformation [9]	Bacterial Biotransformation [10]	Bacterial Biotransformation [11]	Bacterial Biotransformation [12]	Bacterial Biotransformation [13]	Bacterial Biotransformation [14]	Bacterial Biotransformation [15]	Bacterial Biotransformation [16]	Bacterial Biotransformation [17]	Bacterial Biotransformation [18]	Bacterial Biotransformation [19]	Bacterial Biotransformation [20]	Compound
Compound metabolized	Compound metabolized	Compound metabolized	Compound metabolized	Compound metabolized	Compound metabolized	Compound metabolized	Compound metabolized	Compound metabolized	Compound metabolized	Compound metabolized	Compound metabolized	Compound metabolized	Compound metabolized	Compound metabolized	Compound metabolized	Compound metabolized	Compound metabolized	Compound metabolized	Compound metabolized	CC(=O)Oc1ccc(C(c2ccc(OC(C)=O)cc2)c2ccccn2)cc1 [BISACODYL]
Compound metabolized	Compound metabolized	Compound metabolized	Compound metabolized	Compound metabolized	Compound metabolized	Compound metabolized	Compound metabolized	Compound metabolized	Compound metabolized	Compound metabolized	Compound metabolized	Compound metabolized	Compound metabolized	Compound metabolized	Compound metabolized	Compound metabolized	Compound metabolized	Compound metabolized	Compound metabolized	CC(=O)Nc1ccc(OC(C)=O)cc1 [DIACETAMATE]
Compound NOT metabolized	Compound metabolized	Compound metabolized	Compound metabolized	Compound metabolized	Compound metabolized	Compound metabolized	Compound metabolized	Compound metabolized	Compound metabolized	Compound metabolized	Compound metabolized	Compound metabolized	Compound metabolized	Compound metabolized	Compound metabolized	Compound metabolized	Compound metabolized	Compound metabolized	Compound NOT metabolized	CCOc1ccc2nc(S(N)(=O)=O)sc2c1 [ETHOXZOLAMIDE]
